Data on five compounds can be found in ChEMBL document CHEMBL1212896, “Discovery of novel cyanodihydropyridines as potent mineralocorticoid receptor antagonists” (J Med Chem, 2010).

Converted amounts (≈) assume the structure as drawn. The source made the active and inactive calls. The rule behind the calls is not given here.

In data set [1] the test system is Liver microsomes. The data set is described as follows: Metabolic stability in human liver microsomes assessed as compound remaining. The format is ADME, Microsome. On the technique in general: Liver microsomes are vesicles of endoplasmic reticulum, rich in cytochrome P450 enzymes.
The test system of data set [2] is Liver microsomes. The data set is described as follows: Metabolic stability in rat liver microsomes assessed as compound remaining. It is filed as ADME, Microsome.
Another data set addresses T1, Androgen receptor (Homo sapiens, UniProt P10275).
T1 sequence (P10275 whole entry): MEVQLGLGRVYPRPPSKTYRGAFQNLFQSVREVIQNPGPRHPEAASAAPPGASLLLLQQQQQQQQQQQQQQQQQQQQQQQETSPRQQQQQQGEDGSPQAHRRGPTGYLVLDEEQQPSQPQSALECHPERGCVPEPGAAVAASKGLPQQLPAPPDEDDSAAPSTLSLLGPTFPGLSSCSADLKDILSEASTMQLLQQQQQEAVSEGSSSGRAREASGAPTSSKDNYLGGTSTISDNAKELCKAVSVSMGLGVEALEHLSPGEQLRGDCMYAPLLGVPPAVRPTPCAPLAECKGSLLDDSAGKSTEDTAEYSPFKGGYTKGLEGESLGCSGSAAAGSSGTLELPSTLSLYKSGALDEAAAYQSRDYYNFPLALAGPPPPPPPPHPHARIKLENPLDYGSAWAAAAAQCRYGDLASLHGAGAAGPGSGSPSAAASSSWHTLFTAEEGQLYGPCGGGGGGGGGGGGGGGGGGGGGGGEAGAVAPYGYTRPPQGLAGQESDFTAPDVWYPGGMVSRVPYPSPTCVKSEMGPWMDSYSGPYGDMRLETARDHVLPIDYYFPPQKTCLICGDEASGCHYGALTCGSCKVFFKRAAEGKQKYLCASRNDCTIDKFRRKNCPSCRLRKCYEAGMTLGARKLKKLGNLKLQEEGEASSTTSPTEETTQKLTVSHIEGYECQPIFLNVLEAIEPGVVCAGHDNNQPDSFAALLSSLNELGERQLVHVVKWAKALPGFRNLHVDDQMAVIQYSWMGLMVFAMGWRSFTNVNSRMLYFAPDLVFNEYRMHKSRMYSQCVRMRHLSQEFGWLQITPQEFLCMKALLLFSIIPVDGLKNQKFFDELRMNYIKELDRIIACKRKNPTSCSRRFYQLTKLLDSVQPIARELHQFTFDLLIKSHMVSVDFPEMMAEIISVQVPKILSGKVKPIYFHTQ
In words: Antagonist activity at androgen receptor LBD expressed in human HUH7 cells coexpressing GAL4 by luciferase reporter gene assay. It is filed as functional, cell-based, Huh-7. For orientation: A reporter such as luciferase makes a cellular process visible.

The next data set deals with T2, Glucocorticoid receptor (Homo sapiens, UniProt P04150).
T2 sequence (P04150 whole entry): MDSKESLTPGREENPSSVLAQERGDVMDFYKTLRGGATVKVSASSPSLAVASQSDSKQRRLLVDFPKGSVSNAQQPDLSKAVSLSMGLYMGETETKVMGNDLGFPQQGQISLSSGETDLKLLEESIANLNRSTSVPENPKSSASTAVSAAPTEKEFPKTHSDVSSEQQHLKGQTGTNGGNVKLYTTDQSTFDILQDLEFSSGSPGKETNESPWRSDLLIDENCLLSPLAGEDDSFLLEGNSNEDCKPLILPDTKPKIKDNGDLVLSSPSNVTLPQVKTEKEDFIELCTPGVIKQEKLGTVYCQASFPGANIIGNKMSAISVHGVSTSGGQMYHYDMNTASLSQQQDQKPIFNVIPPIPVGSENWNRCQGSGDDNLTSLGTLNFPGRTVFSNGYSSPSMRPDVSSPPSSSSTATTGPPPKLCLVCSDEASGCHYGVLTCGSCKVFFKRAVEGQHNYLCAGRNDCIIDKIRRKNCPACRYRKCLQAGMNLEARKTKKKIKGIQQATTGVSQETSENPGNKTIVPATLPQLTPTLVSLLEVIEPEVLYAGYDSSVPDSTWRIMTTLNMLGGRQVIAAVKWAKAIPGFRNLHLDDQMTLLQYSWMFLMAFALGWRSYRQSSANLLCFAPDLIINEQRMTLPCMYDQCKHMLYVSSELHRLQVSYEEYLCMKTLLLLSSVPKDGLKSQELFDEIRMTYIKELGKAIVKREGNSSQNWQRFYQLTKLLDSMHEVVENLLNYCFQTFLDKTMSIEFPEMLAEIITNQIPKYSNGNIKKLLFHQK
In words: Antagonist activity at glucocorticoid receptor LBD expressed in human HUH7 cells coexpressing GAL4 by luciferase reporter gene assay. It is filed as functional, cell-based, Huh-7.

Data set [3] concerns the target T3, Mineralocorticoid receptor (Homo sapiens, UniProt P08235).
T3 sequence (P08235 whole entry): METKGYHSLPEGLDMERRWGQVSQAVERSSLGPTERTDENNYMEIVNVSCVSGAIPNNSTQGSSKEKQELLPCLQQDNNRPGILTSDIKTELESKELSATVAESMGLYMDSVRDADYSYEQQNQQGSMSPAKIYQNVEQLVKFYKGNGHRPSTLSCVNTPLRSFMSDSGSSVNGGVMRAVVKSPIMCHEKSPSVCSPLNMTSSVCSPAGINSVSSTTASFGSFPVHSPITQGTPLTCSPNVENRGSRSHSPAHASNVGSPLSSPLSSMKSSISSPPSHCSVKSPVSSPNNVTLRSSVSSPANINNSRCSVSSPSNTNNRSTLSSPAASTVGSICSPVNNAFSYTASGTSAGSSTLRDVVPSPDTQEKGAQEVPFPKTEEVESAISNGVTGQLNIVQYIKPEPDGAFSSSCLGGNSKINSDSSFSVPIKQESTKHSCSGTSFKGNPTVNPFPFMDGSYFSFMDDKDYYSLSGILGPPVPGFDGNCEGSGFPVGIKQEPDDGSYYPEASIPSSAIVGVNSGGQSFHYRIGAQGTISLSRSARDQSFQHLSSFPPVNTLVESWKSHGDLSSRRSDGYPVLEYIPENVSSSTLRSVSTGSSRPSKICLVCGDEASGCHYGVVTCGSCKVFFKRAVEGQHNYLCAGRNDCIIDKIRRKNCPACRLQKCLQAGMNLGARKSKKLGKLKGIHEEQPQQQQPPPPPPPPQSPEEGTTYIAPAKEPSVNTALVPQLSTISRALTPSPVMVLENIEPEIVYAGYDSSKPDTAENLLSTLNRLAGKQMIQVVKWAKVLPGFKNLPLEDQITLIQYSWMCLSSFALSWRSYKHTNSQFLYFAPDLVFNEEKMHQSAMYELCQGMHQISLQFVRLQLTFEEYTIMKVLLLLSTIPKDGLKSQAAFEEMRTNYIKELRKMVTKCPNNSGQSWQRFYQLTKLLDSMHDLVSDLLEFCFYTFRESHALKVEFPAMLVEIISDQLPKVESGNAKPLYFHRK
Description: Antagonist activity at mineralocorticoid receptor LBD expressed in human HUH7 cells coexpressing GAL4 by luciferase reporter gene assay

Another data set has as its target T4, Progesterone receptor (Homo sapiens, UniProt P06401).
T4 sequence (P06401 whole entry): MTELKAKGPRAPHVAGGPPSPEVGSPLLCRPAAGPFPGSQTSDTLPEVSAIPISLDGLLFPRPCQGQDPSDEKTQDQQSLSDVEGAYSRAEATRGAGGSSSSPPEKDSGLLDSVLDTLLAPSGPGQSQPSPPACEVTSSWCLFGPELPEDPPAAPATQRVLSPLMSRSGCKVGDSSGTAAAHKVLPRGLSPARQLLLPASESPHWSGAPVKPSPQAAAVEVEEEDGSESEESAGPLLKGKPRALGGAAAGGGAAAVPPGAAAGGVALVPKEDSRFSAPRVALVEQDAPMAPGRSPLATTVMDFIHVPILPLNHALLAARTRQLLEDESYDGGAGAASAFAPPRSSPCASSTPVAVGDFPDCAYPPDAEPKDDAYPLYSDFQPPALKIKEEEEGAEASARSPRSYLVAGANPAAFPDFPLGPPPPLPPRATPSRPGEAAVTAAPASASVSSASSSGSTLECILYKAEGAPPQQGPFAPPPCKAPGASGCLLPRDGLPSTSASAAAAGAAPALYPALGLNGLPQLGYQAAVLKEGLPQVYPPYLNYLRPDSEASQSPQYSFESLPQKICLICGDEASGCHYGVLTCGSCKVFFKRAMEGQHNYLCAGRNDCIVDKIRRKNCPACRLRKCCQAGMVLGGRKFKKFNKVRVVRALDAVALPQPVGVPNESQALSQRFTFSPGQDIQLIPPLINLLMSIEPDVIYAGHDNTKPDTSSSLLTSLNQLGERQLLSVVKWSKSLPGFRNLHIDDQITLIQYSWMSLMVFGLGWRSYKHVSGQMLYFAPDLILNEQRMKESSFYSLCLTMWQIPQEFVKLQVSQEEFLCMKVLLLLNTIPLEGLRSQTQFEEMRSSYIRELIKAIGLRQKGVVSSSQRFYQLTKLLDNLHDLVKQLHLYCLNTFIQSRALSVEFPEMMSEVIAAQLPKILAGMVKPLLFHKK
The data set is described as follows: Antagonist activity at progesterone receptor LBD expressed in human HUH7 cells coexpressing GAL4 by luciferase reporter gene assay. The format is functional, cell-based, Huh-7.

The nature of data set [4]: Solubility of the compound. The format is physicochemical.
A further data set concerns the target Cytochrome P450 2D6 (Homo sapiens, UniProt P10635). In words: Inhibition of CYP2D6. The format is ADME.
A further data set addresses Cytochrome P450 3A4 (Homo sapiens, UniProt P08684). In words: Inhibition of CYP3A4. It is filed as ADME.
For a further data set, the target named is Cytochrome P450 2C9 (Homo sapiens, UniProt P11712). The data set is described as follows: Inhibition of CYP2C9. It is filed as ADME.
The test system of data set [5] is Rattus norvegicus. In words: Protection of renal injury in Dahl salt-sensitive rat model assessed as reduction of urinal albumin excretion at 60 mg/kg, po bid for 21 days. The format is functional, organism-based. The arrangement: dose 60 mg/kg.
Data set [6] has as its system Rattus norvegicus. The data set is described as follows: Antihypertensive activity in Dahl salt-sensitive rat model assessed as decrease of systolic blood pressure at 100 mg/kg administered with chow diet for 21 days. It is filed as functional, organism-based. The arrangement: dose 100 mg/kg. Conditions: Artery.
The subject of data set [7] is Rattus norvegicus. In words: Antihypertensive activity in Dahl salt-sensitive rat model assessed as decrease of systolic blood pressure at 60 mg/kg, po bid for 21 days. The settings on record: Artery. It is filed as functional, organism-based. The arrangement: dose 60 mg/kg.
Data set [8] can be described thus: Intrinsic clearance in rat liver microsomes. The format is ADME, Microsome.

Sequence of Cytochrome P450 2C9 (P11712 whole entry): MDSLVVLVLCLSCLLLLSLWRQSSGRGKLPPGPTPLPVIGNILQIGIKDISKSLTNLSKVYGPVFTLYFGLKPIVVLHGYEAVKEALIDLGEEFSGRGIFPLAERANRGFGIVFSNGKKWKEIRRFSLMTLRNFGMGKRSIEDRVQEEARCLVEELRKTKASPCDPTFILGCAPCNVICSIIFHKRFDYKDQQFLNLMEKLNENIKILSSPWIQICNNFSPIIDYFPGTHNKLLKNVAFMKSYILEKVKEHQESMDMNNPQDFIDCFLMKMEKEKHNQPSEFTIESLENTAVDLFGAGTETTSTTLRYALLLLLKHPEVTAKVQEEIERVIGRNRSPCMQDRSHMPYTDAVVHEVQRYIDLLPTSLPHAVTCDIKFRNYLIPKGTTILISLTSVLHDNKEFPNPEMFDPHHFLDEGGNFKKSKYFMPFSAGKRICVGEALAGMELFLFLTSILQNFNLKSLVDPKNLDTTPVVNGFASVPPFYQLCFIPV
Sequence of Cytochrome P450 3A4 (P08684 whole entry): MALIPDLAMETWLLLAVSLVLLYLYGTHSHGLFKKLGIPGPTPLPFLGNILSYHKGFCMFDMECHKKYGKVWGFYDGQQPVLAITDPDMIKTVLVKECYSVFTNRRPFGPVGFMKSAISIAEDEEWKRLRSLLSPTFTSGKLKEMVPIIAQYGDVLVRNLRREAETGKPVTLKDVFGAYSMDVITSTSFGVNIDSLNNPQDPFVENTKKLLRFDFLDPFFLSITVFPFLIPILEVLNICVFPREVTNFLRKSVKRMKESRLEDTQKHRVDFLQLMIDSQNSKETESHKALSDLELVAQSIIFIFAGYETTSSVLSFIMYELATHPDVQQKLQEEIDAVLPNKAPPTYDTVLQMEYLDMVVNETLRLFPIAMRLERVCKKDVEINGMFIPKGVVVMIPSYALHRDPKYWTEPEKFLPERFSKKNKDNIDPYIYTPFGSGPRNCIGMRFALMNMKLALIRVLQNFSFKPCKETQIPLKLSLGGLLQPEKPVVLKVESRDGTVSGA
Sequence of Cytochrome P450 2D6 (P10635 whole entry): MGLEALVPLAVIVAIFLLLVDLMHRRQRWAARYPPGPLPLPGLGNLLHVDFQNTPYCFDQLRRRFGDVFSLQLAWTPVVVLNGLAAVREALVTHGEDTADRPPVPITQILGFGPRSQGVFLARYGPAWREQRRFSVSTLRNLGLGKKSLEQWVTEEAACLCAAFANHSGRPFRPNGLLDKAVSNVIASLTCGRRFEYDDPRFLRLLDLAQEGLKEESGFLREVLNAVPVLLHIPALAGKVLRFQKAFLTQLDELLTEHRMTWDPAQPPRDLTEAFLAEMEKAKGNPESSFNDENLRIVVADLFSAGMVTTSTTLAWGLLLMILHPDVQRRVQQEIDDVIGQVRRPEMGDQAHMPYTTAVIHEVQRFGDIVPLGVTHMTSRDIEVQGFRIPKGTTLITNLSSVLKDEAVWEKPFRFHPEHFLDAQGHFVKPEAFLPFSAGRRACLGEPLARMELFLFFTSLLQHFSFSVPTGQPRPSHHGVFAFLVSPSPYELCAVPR

As to `CCCCC1=C(C(=O)OC)C(c2ccccc2Cl)C(C#N)=C(C)N1` (configuration not stated), the Stability with Liver microsomes [1] stood at 11%; in the data set on Liver microsomes [2] it was 3%. In addition, the IC50 (in general, the concentration that inhibits the measured activity by half) against Androgen receptor came out at 900 nM; against Glucocorticoid receptor, 1600 nM; in data set [3] it was 58 nM; against Progesterone receptor it was 300 nM. The solubility (usually the concentration that dissolves in the medium under given conditions) in data set [4] is below 5 µM.

As for `COC(=O)C1=C(Cn2cccn2)NC(C)=C(C#N)C1c1ccc(F)cc1Cl` (configuration not stated), the results for the Stability with Liver microsomes [1] and in the data set with Liver microsomes [2] were 2% and 31%, respectively. Also, the IC50 was above 10000 nM against Cytochrome P450 2D6; 1100 nM against Cytochrome P450 3A4; 3300 nM at Glucocorticoid receptor; 54 nM in data set [3]; 600 nM against Cytochrome P450 2C9; 5500 nM against Progesterone receptor. In addition, in data set [4], the solubility is above 5 µM.

On to `COC(=O)C1=C(C(F)(F)F)NC(C)=C(C#N)C1c1ccc(F)cc1Cl` (configuration not stated), for which the Stability amounted to 0% in the data set on Liver microsomes [1] and 6% in the data set on Liver microsomes [2]. Moreover, the results for the “inhibition (INH)” value on Cytochrome P450 2D6, against Cytochrome P450 3A4 and at Cytochrome P450 2C9 were 6.8%, 30% and 72%, respectively. In addition, the IC50 on Androgen receptor stood at 800 nM; on Glucocorticoid receptor it was 3700 nM; in [3], 52 nM; against Progesterone receptor it was 7800 nM.

`COC(=O)[C@@H]1CC2=CC(=O)CC[C@]2(C)[C@@]23O[C@@H]2C[C@@]2(C)[C@@H](CC[C@@]24CCC(=O)O4)[C@H]13`: the result in the data set on Rattus norvegicus [5], in the data set on Rattus norvegicus [6] and in the data set with Rattus norvegicus [7] was Active.

With `COC(=O)C1=C(Cn2cnnn2)NC(C)=C(C#N)[C@H]1c1ccc(F)cc1Cl`, the IC50 against Cytochrome P450 2D6 is above 10000 nM; at Androgen receptor, 300 nM; against Cytochrome P450 3A4 it was above 10000 nM; against Glucocorticoid receptor it was 1000 nM; in [3], 52 nM; against Cytochrome P450 2C9, above 10000 nM. The compound also displayed an IC50 at Progesterone receptor of 7200 nM. Moreover, the CLint scaled (commonly the rate of metabolic loss divided by the concentration) in data set [8] was found to be 8.71 mL/min/kg. This compound also displayed a solubility in [4] of 32 µM (≈ 12.4 µg/mL).
